Literature values, collected in US20060018956A1, “Dermal application system for aminolevulinic acid-derivatives” (priority 2002, published 2006).

Details: fresh ALA solution, approximate physiological value of 8, after just two weeks

In the case of `NCC(=O)CCC(=O)O` [ALA, 5-aminolaevulinic acid], the undecomposed active substance is given as “approx. 10%”.
